Measurements reported in PubChem BioAssay (NCI).
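In this assay, cells in 96-well plates receive the compound at five concentrations for 48 hours. Endpoints are linearly interpolated between the surrounding concentrations. GI50 is the concentration that inhibits growth by half. TGI: total growth inhibition.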

Assays:
Experiment in all cases: NCI tumour cell line growth inhibition, 48 h
DMS 114 small cell lung = tested on: DMS 114 small cell lung
XF 498 CNS = tested on: XF 498 CNS
M19-MEL melanoma = tested on: M19-MEL melanoma
SNB-78 CNS = tested on: SNB-78 CNS
DLD-1 colon = tested on: DLD-1 colon
DMS 273 small cell lung = tested on: DMS 273 small cell lung
RXF-631 renal = tested on: RXF-631 renal
HOP-18 NSCLC = tested on: HOP-18 NSCLC
MDA-N = tested on: MDA-N

Compound | TGI (DMS 114 small cell lung) [µM] | TGI (XF 498 CNS) [µM] | TGI (M19-MEL melanoma) [µM] | TGI (SNB-78 CNS) [µM] | TGI (DLD-1 colon) [µM] | TGI (DMS 273 small cell lung) [µM] | TGI (RXF-631 renal) [µM] | TGI (HOP-18 NSCLC) [µM] | GI50 (SNB-78 CNS) [µM] | GI50 (DLD-1 colon) [µM] | GI50 (DMS 273 small cell lung) [µM] | TGI (MDA-N) [µM]
CC(=O)O[C@@H]1CC(C)C2CC2C2=C(C(O)OC2O)[C@@H]1C(C)CCC=C(C)C (stereo partly specified) | 50.4 | 49.9 | 47.5 | 90.2 | 73.3 | 45.3 |  |  |  |  |  | 
O=Cc1[nH]c2ccccc2c1Br | 44.7 | 63.7 | 59.7 | 44.1 | > 100 | 36.3 | 44.1 | 83.4 |  |  |  | 
Cc1cc2c(c(C#N)c1C)NC(=O)C(CC(=O)O)C2=O (stereo unspecified) | > 100 | > 100 | > 100 | > 100 | > 100 | > 100 | > 100 | > 100 |  |  |  | 
CCCCC(=O)[O-].N.N.N.N.N.[Co+3].[O-][Cl+3]([O-])([O-])[O-] |  |  |  | > 100 | > 100 | > 100 |  |  | > 100 | > 100 | > 100 | 
CNC1NC(=O)c2ccccc2N1Cc1ccc(F)cc1 (stereo unspecified) |  |  |  |  |  |  |  |  |  |  |  | > 100
Cc1ccc2c(=O)[nH]sc2c1 |  |  |  |  |  |  |  |  |  |  |  | 27
Cc1ccc(C2=Nc3ccccc3NC(=O)C2)cc1 | > 100 | 93.4 | > 100 | > 100 | > 100 | > 100 |  | > 100 |  |  |  | 
COc1ccc(C=NC23CC4CC(CC(C4)C2)C3)cc1 | > 100 |  | > 10 | > 100 |  | > 10 |  |  |  |  |  | 
CN(C)CCNC(=O)c1cc([N+](=O)[O-])ccn1 |  |  |  |  |  |  |  |  |  |  |  | 30.7
COc1ccc2nc(NC(=O)C(=O)CC(=O)c3ccc(Cl)cc3)sc2c1 | > 100 | > 100 | > 100 | > 100 | > 100 | > 100 |  | > 100 |  |  |  | 
C=CCN=C1N=C(CC(=O)OCC)CS1 | > 100 | > 100 | > 100 | > 100 | > 100 | > 100 |  | > 100 |  |  |  | 
CC(=S)NNC(=O)c1ccncc1 |  | > 100 | > 100 | > 100 | > 100 | > 100 |  | > 100 |  |  |  | 
CC(=O)Oc1cccc2c1C(=O)C(Br)(Br)CCC2 | 7.79 | 24.1 | 24.6 | 33.8 | 36.2 | 14.9 | 35.5 | 32.2 |  |  |  | 12.8
CN(C)CCCn1c2c3ccccc3ccc2c2oc(=O)c3ccccc3c21 | 4.09 | 9.55 | 8.86 | 39 | 2.99 | 4.22 |  | 40.2 |  |  |  | 
O=C(O)c1ccc([N+](=O)[O-])c2c(=O)c3ccccc3[nH]c12 | > 100 |  | > 100 | > 100 | > 100 | > 100 | > 100 | > 100 |  |  |  | 
CC(C)(C)C(=O)C(c1ccc(-c2cscn2)cc1)c1ccc(-c2cscn2)cc1 |  | 80.5 | > 100 | 78.5 | > 100 | > 100 | > 100 | > 100 |  |  |  | 
CNS(=O)(=O)NN(C)S(=O)(=O)c1ccc(Br)cc1 | > 100 | > 100 | > 100 |  |  | > 100 | > 100 |  |  |  |  | 

Compound | TGI (DMS 114 small cell lung) [µM] | TGI (XF 498 CNS) [µM] | TGI (M19-MEL melanoma) [µM] | TGI (SNB-78 CNS) [µM] | TGI (DLD-1 colon) [µM] | TGI (DMS 273 small cell lung) [µM] | TGI (RXF-631 renal) [µM] | TGI (HOP-18 NSCLC) [µM] | GI50 (SNB-78 CNS) [µM] | GI50 (DLD-1 colon) [µM] | GI50 (DMS 273 small cell lung) [µM] | TGI (MDA-N) [µM]
COC[C@H]1OC(=O)c2coc3c2[C@@]1(C)C1=C(C3=O)[C@@H]2CCC(=O)[C@@]2(C)C[C@H]1OC(C)=O |  |  |  |  |  |  |  |  |  |  |  | > 100
COc1ccc(/C=C2\CNC/C(=C\c3ccc(OC)cc3)C2=O)cc1 | > 100 | > 100 | > 100 | > 100 | > 100 | > 100 |  | > 100 |  |  |  | 
Cn1c(=O)c2[nH]c(COCc3nc4c([nH]3)c(=O)n(C)c(=O)n4C)nc2n(C)c1=O |  |  |  |  |  |  |  |  |  |  |  | > 100
O=C1NC2(O)c3ccccc3C(=O)C2(O)N1c1ccccc1 (stereo unspecified) | > 100 | > 100 | > 100 |  | > 100 |  | > 100 | > 100 |  |  |  | 
COc1cc2c(cc1OC)[C@@H](C(O)c1ccccc1)NCC2 (stereo partly specified) | > 100 | > 100 | > 100 | > 100 | > 100 | > 100 | > 100 |  |  |  |  | 
O[C@]12CCCC[C@H]1CCC2 | > 100 | > 100 | > 100 | > 100 |  | > 100 | > 100 |  |  |  |  | 
CN(C)c1ccc(/C=C2\N=C(c3ccc(N)cc3)OC2=O)cc1 | > 100 | > 100 | > 100 | > 100 | > 100 | > 100 | > 100 | > 100 |  |  |  | 
CCOC(=O)C#Cc1ccc(C#CC(=O)OCC)cc1 |  |  |  |  |  |  |  |  |  |  |  | 4.87
CCN(CC)C(=S)N/N=C(\C)c1ccccc1O | > 100 |  | > 100 | > 100 | > 100 | > 100 | > 100 | 86.5 |  |  |  | 
Cn1c2ccc([N+](=O)[O-])cc2c(=O)c2c(O)cc(O)cc21 |  |  |  |  |  |  |  |  |  |  |  | > 100
COC1=C(C(=O)OC(C)(C)C)[C@]2(C)C(C(=O)OC(C)(C)C)C(OC)=C(C(=O)OC(C)(C)C)[C@]2(C)C1C(=O)OC(C)(C)C (stereo partly specified) | > 100 | > 100 | > 100 | > 100 | > 100 | > 100 |  | > 100 |  |  |  | 
Cc1c(C(=O)CC(=O)C(=O)Nc2cccc(C(F)(F)F)c2)[n+](=O)c2ccccc2n1[O-] | 4.43 |  | 3.69 | 25.2 |  | 10.3 | 11 | 25.5 |  |  |  | 
NC1CCC[C@@H](O)[C@H]1O (stereo partly specified) |  |  |  |  |  |  |  |  |  |  |  | > 100
NC(=O)C1=C(c2ccccc2)c2ccccc2C1=O |  |  |  |  |  |  |  |  |  |  |  | 38.1
Cc1cccc(C)c1NC(=O)C(=O)CC(=O)CO | > 100 |  | > 100 | > 100 | > 100 | > 100 | > 100 | > 100 |  |  |  | 
C=C1C(=O)O[C@@H]2C[C@@H](C)[C@@H]3[C@@H](OC4OC(COC(C)=O)C(O)C(O)C4O)CC(=O)[C@@]3(C)C[C@H]12 (stereo partly specified) |  |  |  |  |  |  |  |  |  |  |  | 3.51
COC1CC(OS(=O)(=O)c2ccc(C)cc2)C(OS(=O)(=O)c2ccc(C)cc2)C(COS(=O)(=O)c2ccc(C)cc2)O1 (stereo unspecified) | 15.1 |  | 20 | > 100 | 22.7 | 18.6 |  | 8.36 |  |  |  | 
